Experimental data: patent US20200140383A1, “2-(4-CHLOROPHENOXY)-N-((1 -(2-(4-CHLOROPHENOXY)ETHYNAZETIDIN-3-YL)METHYL)ACETAMIDE DERIVATIVES AND RELATED COMPOUNDS AS ATF4 INHIBITORS FOR TREATING CANCER AND OTHER DISEASES” (GlaxoSmithKline Intellectual Property Development Limited, priority 2017, published 2020)
“And” between values parts separate entries of the source, which are not always exact repeats. Identical values can stand only once.

Tested on: ATF4 translation (SH-SY5Y-ATF4-NanoLuc cells)
Assay: ATF4 cell based assay (ATF4 5'-UTR NanoLuc luciferase reporter, Thapsigargin induced stress)
Conditions: Thapsigargin 200-300 nM for 14-18 hours, average of two or more experimental runs, read-out: average ATF4 pathway inhibitory activity (IC50)
From the text: The ATF4 reporter assay measures the effect of Thapsigargin induced cellular stress on ATF4 expression. For this reporter assay, a stable cell line was created by transfecting SH-SY5Y cells with a plasmid containing the NanoLuc® luciferase gene fused to the 5′-UTR of ATF4, under the control of the CMV promoter. The ATF4 5′-UTR contains two open reading frames which mediate the cellular stress-dependent translation of the reporter gene. Clones stably expressing the reporter construct were isolated and selected based on the luminescence response to thapsigargin and inhibition of this signal by test compounds. Briefly, SH-SY5Y-ATF4-NanoLuc cells were challenged with Thapsigargin for 14-18 hours to determine the stress effect with or without test compounds.
Cells were propagated in growth media consisting of 90% DMEM F12 (InVitrogen #11320-033), 10% Fetal Bovine Serum (Gibco #10438-026), 5 mM Glutamax (Gibco #35050-061), 5 mM Hepes, (Gibco #15630-080), and 0.5 mg/ml Geneticin (Gibco #10131-027). Cells were prepared for the assay by removing all media from cells, washing the plated cells with phosphate buffered saline, and detached by adding a solution comprised of 10% Tryple express solution (InVitrogen12604-021) and 90% enzyme-free cell dissociation buffer HANKS base (Gibco 13150-016). The trypsin was deactivated by adding assay media comprised of 90% phenol-red free DMEM F12 (InVitrogen, 11039), 10% Fetal Bovine Serum (Gibco #10438-026), (5 mM Glutamax (Gibco #35050-061), 5 mM Hepes, (Gibco #15630-080), and 0.5 mg/ml Geneticin (Gibco #10131-027). Suspended cells were spun down at 300 g for 5 min, the supernatant was removed and the cell pellet was suspended in warm media (30-37° C.) comprised as above but without 10% Fetal Bovine Serum to a concentration of 1e6 cells/mi.
Assay plates were prepared by adding 250 nL of compound stock solution in 100% DMSO to each well, followed by dispensing 20 microliters/well cell suspension to deliver 15-20 k cell/well. Cells were incubated for 1 hour at 37° C. Then, 5 μL of 1.5 μM or 1 μM of Thapsigargin (final concentration: 200-300 nM) was added to each well of cells. Assay plates containing cells were incubated for 14-18 hours at 37° C.
The measurement of luciferase produced by the ATF4 constructs was measured as follows. Aliquots of the Nano-Glo reagent (Nano-Glo® Luciferase Assay Substrate, Promega, N113, Nano-Glo® Luciferase Assay Buffer, Promega, N112 (parts of Nano-Glo® Luciferase Assay System, N1150) were brought to room temperature, the substrate and buffer were mixed according to manufacturer's instructions. The cell plates were equilibrated to room temperature. 25 microliters/well of the mixed Nano-Glo reagent were dispensed into assay wells and pulse spun to settle contents and the plate was sealed with film. The plates were incubated at room temperature for 1 hour before detecting luminescence on an EnVision® plate reader.

Row | IC50 | Structure (SMILES)
1 | 100 to 1000 nM | O=C(COc1ccc(Cl)cc1)NCCC1CN(C(=O)COc2ccc(Cl)cc2)C1 [Example 4, 2-(4-chlorophenoxy)-N-(2-(1-(2-(4-chlorophenoxy)acetyl)azetidin-3-yl)ethyl)acetamide]
2 | 1000 to 8000 nM | O=C(COc1ccc(Cl)cc1)NCC1(F)CN(CCOc2ccc(Cl)cc2)C1 [Example 7, 2-(4-chlorophenoxy)-N-((1-(2-(4-chlorophenoxy)ethyl)-3-fluoroazetidin-3-yl)methyl)acetamide]
3 | 100 to 1000 nM and 106 nM | O=C(COc1ccc(Cl)cc1)NC1CN(CCCOc2ccc(Cl)cc2)C1 [Example 9, 2-(4-chlorophenoxy)-N-(1-(3-(4-chlorophenoxy)propyl)azetidin-3-yl)acetamide]
4 | < 100 nM | O=C(COc1ccc(Cl)cc1)NCC1(O)CN(CCCOc2ccc(Cl)cc2)C1 [Example 10, 2-(4-chlorophenoxy)-N-((1-(3-(4-chlorophenoxy)propyl)-3-hydroxyazetidin-3-yl)methyl)acetamide]
5 | < 100 nM and 78 nM | O=C(COc1ccc(Cl)cc1)NCC1CN(CCOc2ccc(Cl)cc2)C1 [Example 11, 2-(4-chlorophenoxy)-N-((1-(2-(4-chlorophenoxy)ethyl)azetidin-3-yl)methyl)acetamide]
6 | < 100 nM | O=C(COc1ccc(Cl)cc1)NCCC1CN(CCOc2ccc(Cl)cc2)C1 [Example 12, 2-(4-chlorophenoxy)-N-(2-(1-(2-(4-chlorophenoxy)ethyl)azetidin-3-yl)ethyl)acetamide]
7 | < 100 nM | O=C(COc1ccc(Cl)cc1)NCC1CN(C(=O)OCc2ccc(Cl)cc2)C1 [Example 18, 4-chlorobenzyl 3-((2-(4-chlorophenoxy)acetamido)methyl)azetidine-1-carboxylate]
8 | 1000 to 8000 nM and 1340 nM | CC(C)(C)COC(=O)N1CC(CNC(=O)COc2ccc(Cl)cc2)C1 [Example 19, neopentyl 3-((2-(4-chlorophenoxy)acetamido)methyl)azetidine-1-carboxylate]
9 | 1000 to 8000 nM | O=C(COc1ccc(Cl)cc1)NCC1CN(C(=O)NCc2ccc(Cl)cc2)C1 [Example 20, N-(4-chlorobenzyl)-3-((2-(4-chlorophenoxy)acetamido)methyl)azetidine-1-carboxamide]
10 | 100 to 1000 nM | O=C(COc1ccc(Cl)cc1)NCC1CN(C(CCOc2ccc(Cl)cc2)C(=O)O)C1 (centres unmarked) [Example 21, 4-(4-chlorophenoxy)-2-(3-((2-(4-chlorophenoxy)acetamido)methyl)azetidin-1-yl) butanoic acid]

The next lines start with the compound.

Row | Structure (SMILES) | IC50
11 | O=C(COc1ccc(Cl)cc1)NCC1CN(C(=O)COc2ccc(Cl)cc2)C1 [Example 1, 2-(4-chlorophenoxy)-N-((1-(2-(4-chlorophenoxy)acetyl)azetidin-3-yl)methyl)acetamide] | 100 to 1000 nM
12 | O=C(COc1ccc(Cl)cc1)NCC1CN(C(=O)CCc2ccc(Cl)cc2)C1 [Example 2, 2-(4-chlorophenoxy)-N-((1-(3-(4-chlorophenyl)propanoyl)azetidin-3-yl)methyl)acetamide] | 100 to 1000 nM
13 | O=C(COc1ccc(Cl)cc1)NCC1CN(C(=O)C2CC2c2ccc(Cl)cc2)C1 (centres unmarked) [Example 3, 2-(4-chlorophenoxy)-N-((1-(2-(4-chlorophenyl)cyclopropane-1-carbonyl)azetidin-3-yl)methyl)acetamide] | 100 to 1000 nM
14 | CC(C)(C)OCC(=O)N1CC(CNC(=O)COc2ccc(Cl)cc2)C1 [Example 5, N-((1-(2-(tert-butoxy)acetyl)azetidin-3-yl)methyl)-2-(4-chlorophenoxy)acetamide] | 1000 to 8000 nM
15 | O=C(COc1ccc(Cl)cc1)NCC1CN(CCCOc2ccc(Cl)cc2)C1 [Example 6, 2-(4-chlorophenoxy)-N-((1-(3-(4-chlorophenoxy)propyl)azetidin-3-yl)methyl)acetamide] | < 100 nM
16 | O=C(COc1ccc(Cl)cc1)NCC1(F)CN(CCCOc2ccc(Cl)cc2)C1 [Example 8, 2-(4-chlorophenoxy)-N-((1-(3-(4-chlorophenoxy)propyl)-3-fluoroazetidin-3-yl)methyl)acetamide] | 100 to 1000 nM
17 | O=C(NCC1CN(CCCOc2ccc(Cl)cc2)C1)C1CCc2cc(Cl)ccc2O1 (centres unmarked) [Example 13, 6-chloro-N-((1-(3-(4-chlorophenoxy)propyl)azetidin-3-yl)methyl)chromane-2-carboxamide] | < 100 nM
18 | O=C(COc1ccc(Cl)cc1)NCC1CN(CCCc2ccc(Cl)cc2)C1 [Example 14, 2-(4-chlorophenoxy)-N-((1-(3-(4-chlorophenyl)propyl)azetidin-3-yl)methyl)acetamide] | < 100 nM
19 | O=C(COc1ccc(Cl)cc1)NCCC1CN(CCCc2ccc(Cl)cc2)C1 [Example 15, 2-(4-chlorophenoxy)-N-(2-(1-(3-(4-chlorophenyl)propyl)azetidin-3-yl)ethyl)acetamide] | 100 to 1000 nM
20 | O=C(COc1ccc(Cl)cc1)NCC1CN(C(=O)OCCc2ccc(Cl)cc2)C1 [Example 16, 4-chlorophenethyl 3-((2-(4-chlorophenoxy)acetamido)methyl)azetidine-1-carboxylate] | 100 to 1000 nM
21 | O=C(COc1ccc(Cl)cc1)NCC1CN(C(=O)OCCOc2ccc(Cl)cc2)C1 [Example 17, 2-(4-chlorophenoxy)ethyl 3-((2-(4-chlorophenoxy)acetamido)methyl)azetidine-1-carboxylate] | < 100 nM
22 | COc1ccc(N2CC(CNC(=O)COc3ccc(Cl)cc3)C2)cc1 [Example 22, 2-(4-chlorophenoxy)-N-((1-(4-methoxyphenyl)azetidin-3-yl)methyl)acetamide] | 1000 to 8000 nM
23 | O=C(COc1ccc(Cl)cc1)NCC1CN(c2cccnc2)C1 [Example 23, 2-(4-chlorophenoxy)-N-((1-(pyridin-3-yl)azetidin-3-yl)methyl)acetamide] | 1000 to 8000 nM
